Like-named read-outs stand apart in the source and are kept apart here.
Columns and labels:
platelet = test: Blood platelet aggregation inhibiting effect (collagen-induced); type: cell-based, rabbits; conditions: Oryctolagus cuniculus, Platelet; 10^-4 mole, collagen inducer, rabbit PRP; read-out: Blood platelet agg. inh.: percentage inhibition of platelet aggregation
Source text: Male rabbits (Japan original white strain 3.3 to 3.6 kg) were anesthetized with Thiopental sodium and blood was sampled from the carotid artery.

male mice = test: Analgesic effect: painful stretchings following intraperitoneal 0.7% acetic acid; conditions: Mus musculus, po, read-out: Analgesic: percentage diminition of times of painful stretching
Experimental: Each sample was orally administered in the dosage of 100 mg/kg before injection of acetic acid.

hind paws of male rats = test: Anti-inflammatory effect: acute carragheenin edema method; type: in vivo; conditions: Rattus norvegicus, read-out: Anti-inf.: edema inhibition rate
Experimental: The edema was induced by subcutaneous injection of 1% carragheenin suspension in saline to the hind paws of male rats weighting 150 to 180 g. Each sample was orally given at the dosage of 100 mg/kg just before the inoculation of carragheenin.

thrombus = test: Inhibiting effect on thrombosis (by-pass between left juglar vein and right carotid artery, silk thread); type: in vivo, SD type male rates; conditions: Rattus norvegicus, read-out: Thrombosis inh.: thrombosis inhibition rate
Experimental: The inhibiting effects of the samples of the invention on thrombosis were tested by the following test method.
A 0.5 ml of 50 μ/ml of the heparin physiological saline was added through the polyethylene tube before the first blood circulation. After the blood circulation for 15 minutes, the circulation was stopped in the middle of the tubing at artery side with a pinch cock.
Then, 0.2 ml of the heparin physiological saline was added to remove the blood coagulates on the tubing wall and another new polyethylene tubing filled with the heparin solution and containing a piece of new silk thread was attached between the venous and artery tubing ends.
The blood circulation was reestablished by opening the pinch cock. After 15 minutes, the wet weight of thrombus on the silk thread was similarly measured.
In the same manner, the third circulation was performed and wet weight of thrombus measured.
The amount of thrombus was given by the equation A. [formula] Each sample was suspended in an aqueous solution of sodium carboxymethyl cellulose and the oral dose of the suspension (100 mg/kg) was performed at 5 hours before the first blood circulation.
The amount of thrombus after the oral dose of the sample was calculated in the same manner as that of control circulations.
The thrombosis inhibition rate was given by the equation B. [formula]

[1] = 100 mg/kg oral, carragheenin edema, male rats (Table 2)
[2] = 100 mg/kg oral, 5 hours before first blood circulation, rats

Compound	inhibition at 100 µM (platelet) [%]	inhibition in vivo at 100 mg/kg (male mice) [%]	inhibition in vivo at 100 mg/kg (hind paws of male rats; [1]) [%]	inhibition in vivo at 100 mg/kg (thrombus; [2]) [%]	inhibition in vivo at 100 mg/kg (hind paws of male rats; po) [%]	inhibition in vivo at 100 mg/kg (thrombus; po, 5 h) [%]
CCCOc1ccc(C(=O)Cc2ccccc2)cc1 [compound 58]	20.1	19.8	15.3	14.6	–	–
COc1ccc(C(=O)Cc2ccccc2)cc1 [compound 57]	12.5	10.3	16.1	6.5	–	–
CCCCc1ccc(C(=O)C(=O)c2ccccc2)cc1 [compound 29]	11.1	2.7	44.7	15.3	–	–
Cc1cc(C)c(C(=O)c2ccc(Cl)cc2)c(C)c1 [compound 14]	18.1	19.2	37.3	23.3	–	–
CCCCCc1ccc(C(=O)c2ccc(CCC)cc2)cc1 [compound 99]	29.5	15.5	34.1	30.3	–	–
CCc1ccc(C(=O)c2ccc(C)cc2)cc1 [compound 33]	20.5	15.5	43.9	28.3	–	–
CCCCCCCCCCCc1ccc(C(=O)c2ccccc2)cc1 [compound 71]	19.5	9.2	20	11.4	–	–
CCCc1ccc(C(=O)c2cccc(C)c2)cc1 [compound 87]	30.1	11.2	18.7	25.8	–	–
Cc1ccc(C)c(C(=O)c2ccccc2)c1 [compound 38]	20.9	18	37.5	8.3	–	–
CCCc1ccc(C(=O)c2ccc(O)cc2)cc1 [compound 104]	25.3	13.2	27.4	30.5	–	–
Cc1ccc(C(=O)c2c(C)cc(C)cc2C)cc1 [compound 86]	28.3	8.3	17.7	35.6	–	–
COc1ccc(C(=O)Cc2ccc(Cl)cc2)cc1 [compound 60]	4	6.3	13.2	12.3	–	–
CCCCc1ccc(C(=O)c2cccc(C)c2)cc1 [compound 88]	24.5	5.6	21.6	29.3	–	–
CCCCCCCCCCCc1ccc(C(=O)Cc2ccccc2)cc1 [compound 51]	9.5	18.3	24.6	13.5	–	–
O=C(c1ccccc1)c1ccccc1F [compound 15]	23.2	18.5	61.4	26.5	–	–
CC(C)c1ccc(C(=O)c2ccccc2)cc1 [compound 21]	8.6	16.1	37.3	5.4	–	–
CCCCCCCCCCCCc1ccc(C(=O)Cc2ccccc2)cc1 [compound 52]	6.8	12.5	25.5	10.1	–	–
CCCCc1ccc(C(=O)c2ccccc2)cc1 [compound 19]	18.6	30.1	63.4	7.9	–	–
CCCCCc1ccc(C(=O)c2ccc(C)cc2)cc1 [compound 84]	8.6	15.3	28.4	16	–	–
CCc1ccc(CC)c(C(=O)c2ccccc2)c1 [compound 80]	30.3	16.2	31.9	28.5	–	–
CCCCCc1ccc(C(=O)c2ccccc2C)cc1 [compound 41]	14.4	14.6	47.4	28.5	–	–

Compound	inhibition at 100 µM (platelet) [%]	inhibition in vivo at 100 mg/kg (male mice) [%]	inhibition in vivo at 100 mg/kg (hind paws of male rats; [1]) [%]	inhibition in vivo at 100 mg/kg (thrombus; [2]) [%]	inhibition in vivo at 100 mg/kg (hind paws of male rats; po) [%]	inhibition in vivo at 100 mg/kg (thrombus; po, 5 h) [%]
Cc1cc(C)c(C(=O)c2ccccc2)c(C)c1C [compound 79]	26.8	20.8	33.2	31.5	–	–
O=C(Cc1ccccc1)c1ccccc1 [compound 47]	18.3	13.1	–	–	20.9	15.6
Cc1ccc(C(=O)c2ccccc2)c(C)c1C [compound 31]	18.2	9.5	35.4	23.5	–	–
CCCCc1ccc(C(=O)c2ccc(CCCC)cc2)cc1 [compound 43]	3.5	0	34	86	–	–
CCCCc1ccc(C(=O)Cc2ccccc2)cc1 [compound 39]	2.6	23.1	35.9	15.9	–	–
COc1cc(OC)c(C(=O)c2ccccc2)c(OC)c1 [compound 76]	16.2	13.9	15.7	18.4	–	–
Cc1ccccc1C(=O)c1c(C)c(C)cc(C)c1C [compound 91]	14.7	15.2	21.4	31	–	–
Cc1ccc(C(=O)c2ccccc2)cc1C [compound 72]	28.7	23.4	29.9	30.2	–	–
CCc1ccc(C(=O)c2ccccc2)cc1 [compound 66]	20.7	15.7	34.4	20.5	–	–
CCCc1ccc(C(=O)c2c(C)cc(C)cc2C)cc1 [compound 97]	26.8	14.7	13	37.3	–	–
CCCc1ccc(C(=O)c2ccc(CC)cc2)cc1 [compound 112]	11.8	6.7	14.1	15.5	–	–
O=C(c1ccc(F)cc1)c1ccccc1Cl [compound 115]	25.4	11.8	14.5	27.5	–	–
O=C(c1ccc(F)cc1)c1ccc(F)cc1 [compound 114]	26.8	18.3	33.2	31.1	–	–
CCCc1ccc(C(=O)c2ccc(Cl)cc2)cc1 [compound 63]	15.6	8.2	11.8	6.2	–	–
CCOc1ccc(C(=O)c2ccccc2)cc1 [compound 81]	18.3	17.6	15.3	20.3	–	–
CCc1ccc(C(=O)c2ccc(OC)cc2)cc1 [compound 107]	20.3	13.2	–	19.6	20.3	–
CCCCOc1ccc(C(=O)Cc2ccc(Cl)cc2)cc1 [compound 61]	15.8	15.1	16.7	8.5	–	–
COc1ccc(C(=O)c2ccccc2)c(OC)c1 [compound 74]	18.5	24.2	30.2	28.9	–	–
CCCc1ccc(C(=O)c2ccc(C)cc2)cc1 [compound 34]	16.4	12.1	43.1	24.5	–	–
CCCCCCCCc1ccc(C(=O)c2ccc(CCCC)cc2)cc1 [compound 101]	27.9	18.3	23.1	31.4	–	–
C=Cc1ccc(C(=O)c2ccccc2)cc1 [compound 82]	20.5	13.5	23.8	30.1	–	–

From patent US4145444A, “Anti-inflammatory agent of benzoyl derivative” (priority 1977, dated 1979)
